{"source": "PubChem BioAssay AID540252", "about": "(Sanford-Burnham Center for Chemical Genomics, 2011)", "note": "Activity calls are given as the source filed them. The rule behind the calls is not given here.", "data": [{"target": "glucose-6-phosphate dehydrogenase-6-phosphogluconolactonase (Plasmodium falciparum 3D7)", "assay": "inhibition of P. falciparum G6PD activity – biochemical, end-point NADPH detection, orthogonal assay, dose response (AID 540252)", "conditions": "purified PfG6PD enzyme, NADPH direct detection", "values": [{"compound": "Cc1ccc(NC2=C(NC(=O)c3ccccc3)C(=O)c3ccccc3C2=O)cc1Cl", "IC50": "> 80 µM (inactive)"}, {"compound": "Fc1cccc(Cl)c1CNc1ccc(N2CCCC2)cc1", "IC50": "> 80 µM (inactive)"}, {"compound": "C(=N\\Nc1nc2ccccc2[nH]1)/c1ccccn1", "IC50": "> 80 µM (inactive)"}, {"compound": "c1nc(SSc2ncnc3nc[nH]c23)c2[nH]cnc2n1", "IC50": "28.7 µM"}, {"compound": "O=C(CNC(=O)c1ccc(Br)cc1)NCC(=O)OCC(=O)c1ccc([N+](=O)[O-])cc1", "IC50": "> 80 µM (inactive)"}, {"compound": "O=[N+]([O-])c1cnc(Sc2ccncn2)c([N+](=O)[O-])c1", "IC50": "49.3 µM"}, {"compound": "Cc1ccc(CNc2ccc(O)cc2)cc1", "IC50": "> 80 µM (inactive)"}, {"compound": "Cc1nnc(SCC(=O)c2cc(C)n(-c3ccc4c(c3)OCO4)c2C)s1", "IC50": "> 80 µM (inactive)"}, {"compound": "COc1cccc2nc3cc(C)c(C)cc3nc12", "IC50": "> 80 µM (inactive)"}, {"compound": "C=CCN1C=C2C(=O)C(C)(OC(=O)CCC(=O)OC)C(=O)C(Br)=C2C=C1c1ccc(OC)cc1", "note": "(centres undefined)", "IC50": "> 80 µM (inactive)"}, {"compound": "O=C1C=C(NCCc2cc(Br)c(O)c(Br)c2)C(=O)c2ncccc21", "IC50": "> 80 µM (inactive)"}, {"compound": "C=CCOc1ccc(CNc2ccc3[nH]c(=O)[nH]c3c2)cc1OC", "IC50": "> 80 µM (inactive)"}, {"compound": "COc1cc(/C=C2\\SC(c3ccc(C)cc3)=NC2=O)ccc1O", "IC50": "> 80 µM (inactive)"}, {"compound": "COc1cc(N)c2ncsc2c1", "IC50": "> 80 µM (inactive)"}, {"compound": "NS(=O)(=O)c1ccc(-c2ccc(C=C3C(=O)NC(=O)NC3=O)o2)cc1", "IC50": "> 80 µM (inactive)"}, {"compound": "CCOC(=O)c1c2ccc(OCC(=O)NN)cc2n2ccccc12", "IC50": "> 80 µM (inactive)"}, {"compound": "Cc1cnc(C=NNC(N)=S)c2cccc(N)c12", "IC50": "> 80 µM (inactive)"}, {"compound": "COc1ccc(NC2CCCN(Cc3cccc4cnccc34)C2)cc1OC", "note": "(centres undefined)", "IC50": "> 80 µM (inactive)"}, {"compound": "CCC(=O)OCOc1ccc(/C=C2/CCC(CN(C)C)C2=O)cc1", "note": "(centres undefined)", "IC50": "> 80 µM (inactive)"}, {"compound": "COc1ccc(OCc2nnc3n2N=C(c2ccccc2)C(CC(=O)O)S3)cc1", "note": "(centres undefined)", "IC50": "> 80 µM (inactive)"}, {"compound": "CC(=O)Nc1ccc(S(=O)(=O)/N=C2\\C(=O)c3ccccc3C([O-])=C2n2cc[n+](-c3ccccn3)c2)cc1", "IC50": "> 80 µM (inactive)"}, {"compound": "CCOc1ccc(N(CC(=O)N/N=C/c2cc([N+](=O)[O-])ccc2Cl)S(C)(=O)=O)cc1", "IC50": "> 80 µM (inactive)"}, {"compound": "O=C(Nc1ccccn1)c1sc2cc([N+](=O)[O-])ccc2c1Cl", "IC50": "> 80 µM (inactive)"}, {"compound": "CCCN1CCc2cccc3c2[C@H]1Cc1ccc(O)c(O)c1-3", "IC50": "> 80 µM (inactive)"}, {"compound": "COc1ccc(C(=O)c2c(C(F)(F)F)oc3c2C(=O)c2ccccc2C3=O)cc1OC", "IC50": "> 80 µM (inactive)"}, {"compound": "Cc1ccc(NC(=O)Cn2sc3nc(C)cc(C)c3c2=O)c(Cl)c1", "IC50": "> 80 µM (inactive)"}, {"compound": "COC(=O)c1ccccc1NC1=C/C(=N\\S(=O)(=O)c2cccs2)c2ccccc2C1=O", "IC50": "> 80 µM (inactive)"}, {"compound": "Cc1cc(O)c(C(C)C)cc1N=Cc1ccccc1[N+](=O)[O-]", "IC50": "> 80 µM (inactive)"}, {"compound": "O=C(Cn1sc2ccccc2c1=O)Nc1ccc(Br)cc1", "IC50": "22.4 µM"}, {"compound": "CN1CCN(C(=S)C(=O)Nc2ccc(Br)cc2)CC1", "IC50": "67.9 µM"}, {"compound": "O=C(O)CSc1cc(NS(=O)(=O)c2ccc(Cl)cc2)c2ccccc2c1O", "IC50": "> 80 µM (inactive)"}, {"compound": "CCCn1cc(S(=O)(=O)CC(=O)Nc2ccc(OC)cc2OC)c2ccccc21", "IC50": "> 80 µM (inactive)"}, {"compound": "CN(C)c1cccc2c1c(NC(=O)c1ccc(Cl)cc1)nn2C", "IC50": "> 80 µM (inactive)"}, {"compound": "O=C(OCC(=O)c1ccc([N+](=O)[O-])cc1)/C(=C\\c1ccc(Cl)cc1)NC(=O)c1ccccc1", "IC50": "> 80 µM (inactive)"}, {"compound": "O=C1Nc2ccccc2C(=O)C1(Cl)Cc1ccccc1", "note": "(centres undefined)", "IC50": "> 80 µM (inactive)"}, {"compound": "Oc1ccc(C23CC4CC(CC(C4)C2)C3)cc1O", "IC50": "52 µM"}, {"compound": "COc1cc(NCCCn2ccc(NC(=O)OCc3ccccc3)nc2=O)cc(OC)c1OC", "IC50": "> 80 µM (inactive)"}, {"compound": "O=C(CSc1nc2ccc(Cl)cc2[nH]1)NC1CCCc2ccccc21", "note": "(centres undefined)", "IC50": "> 80 µM (inactive)"}, {"compound": "CCOC(=O)c1c(OCC)[nH]c2c1cc(O)c1ccccc12", "IC50": "> 80 µM (inactive)"}, {"compound": "Nc1cc(N)c(OCC(F)(F)F)cc1OCC(F)(F)F", "IC50": "> 80 µM (inactive)"}, {"compound": "Cc1ccc(NC(=O)c2cc(C)n(-c3ccccc3)c2C)cc1", "IC50": "> 80 µM (inactive)"}, {"compound": "CC1(OC(=O)C2CCCC2)C(=O)C=C2C=C(c3ccsc3)N(CC3CC3)C=C2C1=O", "note": "(centres undefined)", "IC50": "> 80 µM (inactive)"}, {"compound": "O=c1c2ccccc2sn1-c1ccccc1F", "IC50": "14.9 µM"}, {"compound": "CSc1nnc(NC(=O)c2ccc3c(c2)OCO3)s1", "IC50": "> 80 µM (inactive)"}, {"compound": "COc1cc(OC)c(C2CC(=O)N3CN(c4ccccc4)CSC3=C2C#N)cc1OC", "note": "(centres undefined)", "IC50": "> 80 µM (inactive)"}, {"compound": "COc1cc(N)c2ncccc2c1SC", "IC50": "> 80 µM (inactive)"}, {"compound": "Cc1ccc(SC2=C(Sc3ccc(C)cc3)C(=O)c3ccccc3C2=O)cc1", "IC50": "> 80 µM (inactive)"}, {"compound": "Cn1c(=O)c2[nH]c(-c3ccccc3)c(O)c2n(C)c1=O", "IC50": "> 80 µM (inactive)"}, {"compound": "O=c1[nH]c(NCCO)c(N=Cc2ccccc2)c(=O)[nH]1", "IC50": "> 80 µM (inactive)"}, {"compound": "CC1=C(C)CS(=O)N(S(=O)(=O)c2ccc(Cl)cc2)C1", "note": "(centres undefined)", "IC50": "> 80 µM (inactive)"}, {"compound": "O=C(COC(=O)c1cnccn1)c1ccc([N+](=O)[O-])cc1", "IC50": "54.9 µM"}, {"compound": "O=C1C=CC(=O)N1c1ccc(-c2nc3ccccc3o2)cc1", "IC50": "> 80 µM (inactive)"}, {"compound": "c1cncc(CNc2ccc3c(c2)OCO3)c1", "IC50": "> 80 µM (inactive)"}, {"compound": "[O-][N+](=Cc1ccccc1)c1ccc(Cl)cc1", "IC50": "> 80 µM (inactive)"}, {"compound": "Cc1ccc(C)c(-n2sc3ccc(F)cc3c2=O)c1", "IC50": "10.5 µM"}, {"compound": "Cc1cccc(C(=O)Nc2nnc(S(=O)(=O)N3CCOCC3)s2)c1", "IC50": "> 80 µM (inactive)"}, {"compound": "CC(=O)Nc1ccc(S(=O)(=O)NNc2cccc(C)c2)cc1", "IC50": "> 80 µM (inactive)"}, {"compound": "O=C(O)c1ccc(-n2c(-c3cc(-c4ccco4)[nH]n3)n[nH]c2=S)cc1", "IC50": "> 80 µM (inactive)"}, {"compound": "CC(=O)Nc1ccc2c(c1)Cc1cc(N3C(=O)C=CC3=O)ccc1-2", "IC50": "23.7 µM"}, {"compound": "C=CCc1ccccc1OCC(=O)N/N=C/c1ccccc1OCC", "IC50": "> 80 µM (inactive)"}, {"compound": "CC1(C)Nc2ccc(O)cc2-c2c1ssc2=S", "IC50": "> 80 µM (inactive)"}, {"compound": "C[C@]12CC[C@@H]3c4cc(O)c(O)cc4CC[C@H]3[C@@H]1CC[C@@H]2O", "IC50": "38 µM"}, {"compound": "COc1ccc2c(c1)c(=Cc1ccc(N(C)C)cc1)c1cc(-c3ccccc3)[n+](C)n12", "IC50": "> 80 µM (inactive)"}, {"compound": "O=C1C=CC(=O)N1CCNc1ncc(C(F)(F)F)cc1Cl", "IC50": "65.4 µM"}, {"compound": "COc1cc(CNc2ccc3[nH]c(=O)[nH]c3c2)ccc1OCc1ccccc1", "IC50": "> 80 µM (inactive)"}, {"compound": "CCN1CCCC1CNC(=O)c1ccc2c(c1)NC(=O)/C(=C\\c1ccc(C)cc1)S2", "note": "(centres undefined)", "IC50": "> 80 µM (inactive)"}, {"compound": "COc1ccc2nc3cc(Cl)ccc3c(Nc3ccc(O)c(CN4CCN(C)CC4)c3)c2c1", "IC50": "> 80 µM (inactive)"}, {"compound": "CN1/C(=C\\C(=O)c2cccs2)Sc2ccccc21", "IC50": "> 80 µM (inactive)"}, {"compound": "O=C1C(=Cc2cccc(O)c2O)SC(=S)N1CCCN1CCOCC1", "IC50": "44.3 µM"}, {"compound": "O=c1[nH]nc(CNc2ccc(O)cc2)c2ccccc12", "IC50": "> 80 µM (inactive)"}, {"compound": "COCCNC(=S)Nc1ccc(N2CCOCC2)c(S(=O)(=O)Nc2ccc(Cl)cc2)c1", "IC50": "> 80 µM (inactive)"}, {"compound": "Oc1ccc(/C=N/N=C(c2ccccc2)c2ccccc2)c(O)c1O", "IC50": "67.4 µM"}, {"compound": "Cc1cc(N=NC(=O)c2ccccc2O)c2ccccc2c1O", "IC50": "> 80 µM (inactive)"}, {"compound": "CC(Cc1ccc(O)c(O)c1)C(C)Cc1ccc(O)c(O)c1", "note": "(centres undefined)", "IC50": "68.4 µM"}]}]}
